The values below are quoted from earlier work in patent US20120020948A1, “DAG-TYPE AND INDIRECT PROTEIN KINASE C ACTIVATORS AND ANTICOAGULANT FOR THE TREATMENT OF STROKE” (priority 2010, published 2012).

In data set [1] the test system is NCI 60 cell line screen.
Data set [2] has as its system PKC. The conditions noted are these: for affinity for PKC: A-ring bryologs.

As to `CC1=CC[C@H](C)C(C)(C)[C@@H]1/C=C/C(C)=C/CC[C@@]1(CO)[C@H](CCCO)/C(=C(/C)C=O)CC[C@]1(C)O` [Iripallidal], in data set [1], the “GI50 (concentration required to inhibit growth by 50%)” value is on record as “micromolar to nanomolar range”.
Turning to `CCCCCCCC(=O)OC1C(=CC(=O)OC)CC2CC(CO)OC(=O)CC(O)CCOC(c3ccccc3)CC3CCOC(C=CC(C)(C)C1(O)O2)O3` (stereo not drawn) [bryolog 4], the “affinity for PKC” value in data set [2] is 2.3 nM.
With `CCCCCCCC(=O)O[C@H]1/C(=C/C(=O)OC)C[C@H]2C[C@H](CO)OC(=O)C[C@H](O)C[C@@H]3CCC[C@H](C[C@@H]4CCO[C@H](/C=C/C(C)(C)[C@]1(O)O2)O4)O3` [Analog 1], in data set [2], the “PKC Affin” value is recorded as 0.25 nM and the “affinity for PKC (in words)” value is “highest affinity for PKC”.
`CCCCCCCC(=O)OC1C(=CC(=O)OC)CC2CC(CO)OC(=O)CC(O)CCOC(C(C)(C)C)CC3CCOC(C=CC(C)(C)C1(O)O2)O3` (stereo not drawn) [bryolog 3]: in data set [2], the “affinity for PKC” value was 6.5 nM.
As to `CCCCCCCC(=O)OC1C(=CC(=O)OC)CC2CC(CO)OC(=O)CC(O)CCOC(CCCc3ccc(Br)cc3)CC3CCOC(C=CC(C)(C)C1(O)O2)O3` (stereo not drawn) [bryolog 5], the “affinity for PKC” value in data set [2] is listed as 1.9 nM.
